Patent publication US8841306B2, “Antimicrobials” (Panacea Biotec Ltd., priority 2008, dated 2014)
≈ marks a conversion by molar mass, not a printed value. Like-named read-outs stand apart in the source and are kept apart here.

Tests used:
[1] = test system: S. aureus PTCC 100 (LRSA); assay: In-vitro antibacterial activity, broth microdilution MIC against linezolid resistant strain; assay type: cell-based; details: Staphylococcus aureus
Method: (§1) The in-vitro antibacterial activity of the compounds of the present invention (as described in Table 2) was determined by a broth microdilution following the guidelines prescribed by the Clinical and Laboratory Standards Institute (CLSI). This method is described in the CLSI Document M7-A7, Vol. 26, No. 2, “Methods for Dilution Antimicrobial Susceptibility Test for Bacteria that Grow Aerobically; Approved Standard-Seventh Edition”, which is incorporated herein by reference. Minimum Inhibitory Concentration (MIC) is defined as the minimum concentration of test compound which inhibits the growth of bacteria as visible or seen by the naked eye. This test can also be carried out by agar dilution method.
(§2) The compounds of the present invention were tested against a panel of standard microorganisms obtained from ATCC (American type culture collection), and a Linezolid resistant strain (LRSA) i.e. PTCC 100 (Panacea type culture collection). PTCC 100 is a repository that has been created by Panacea Biotec Ltd. at Mohali, India for storage and maintenance of clinical, bacterial and other isolates developed in-house which are used for testing the test compounds. Linezolid was used as comparator in all the tests.
(§3) In the broth microdilution method, the compound was dissolved in dimethylsulfoxide and two fold serial dilutions were carried out in 96 well microtitre plates. The inoculum was prepared by adjusting the turbidity of actively growing broth culture and added to the wells to obtain a final bacterial count of ˜2-5×10^4 CFU/well. The microtitre plates were incubated at 35±2° C. for 16-20 h and then read visually.
PTCC 100 was developed by a procedure similar to the one cited in Antimicrobial Agents and Chemotherapy, 2008, 52, 1940. Female Swiss albino mice (18-22gm) bred in-house were inoculated with S. aureus ATCC 29213 strain and dosed orally with Linezolid at 5 mg/kg/p.o, next day mice were sacrificed after 20-22 h and intraperitoneal swab was taken and streaked onto Mueller Hinton Agar plates containing 4 and 8 μg/mL of Linezolid. Colonies obtained on 4 μg/mL and 8 μg/mL were selected from plates and further passaged into mice (SAM), dosed orally with Linezolid at 7.5 mg/kg/p.o. Mice were sacrificed and intraperitoneal swabs were streaked onto plates containing higher linezolid concentration i.e 16 and 32 μg/mL and the process was repeated by incrementally increasing the concentration of Linezolid upto 10 mg/kg/p.o in mice, to finally obtain S. aureus strains resistant to Linezolid at 64 μg/mL.

[2] = test system: S. aureus ATCC 29213 (MSSA); assay: In-vitro antibacterial activity, broth microdilution MIC (CLSI); assay type: cell-based; details: Staphylococcus aureus, 35±2° C., 16-20 h, read visually
Method: as §1, §2, §3

[3] = test system: S. aureus ATCC 33591 (MRSA); assay: as above; assay type: cell-based; details: Staphylococcus aureus, 35±2° C., 16-20 h, read visually
Method: as §1, §2, §3

[4] = test system: E. faecium ATCC 700221 (VRE); assay: as above; assay type: cell-based; details: Enterococcus faecium, 35±2° C., 16-20 h, read visually, read-out: MIC E. faecium ATTC 700221 (VRE)
Method: as §1, §2, §3

[5] = test system: E. faecalis ATCC 29212; assay: as above; assay type: cell-based; details: Enterococcus faecalis, ATCC29212, 35±2° C., 16-20 h, read visually
Method: as §1, §2, §3

[6] = test system: S. aureus ATCC 29213; assay: In-vivo efficacy: systemic model of infection in mice; set-up: species or system Staphylococcus aureus; details: female Swiss albino mice, i.p. infection, oral dosing at 1 h and 5 h post infection, 50% survival at 7 days
Method: Female Swiss albino mice bred in-house were selected in weight range of 19-23 gm (n=6/group). S. aureus ATCC 29213 was grown overnight for 18-20 h, on Columbia Blood Agar (Difco; BD). Next day bacterial inoculum was prepared with optical density (O.D) corresponding to cell density of ˜2˜10^9 CFU/ml and mixed with 10% of gastric mucin (Difco; BD) in ratio of 1:1 to obtain final mucin concentration of 5% w/v. 0.5 mL of bacterial inoculum was injected intraperitoneally (i.p) into all the mice. Compounds obtained in the present invention, hereinafter referred as Test compounds were formulated in 0.25% Carboxymethylcellulose (C.M.C) and Tween 80, at different dose levels and then administered orally at 1 h and 5 h post infection. Linezolid was used as standard control. Saline was administered to the infection control group which received neither the test compound nor the standard drug. […] Numbers of survivors in each group were noted and ED50 of test compound on the basis of 50% survival was calculated through regression analysis.

[7] = PTCC100, read-out: MIC S. aureus PTCC 100 (LRSA)

SMILES | MIC [1, 7] | MIC [2] | MIC [3] | MIC [4] | MIC [5] | ED50 values S. aureus ATCC 29213 [6] | MIC ([1]; PTCC100, read-out: MIC of isolated colonies (PTCC 100))
COC(=O)NC[C@H]1CN(c2cc(F)c(N3CCN(C(=O)CNC(=O)c4cn5ccncc5n4)CC3)c(F)c2)C(=O)O1 [Compound 1] | 0.25 µg/mL (≈ 0.437 µM) | 0.5 µg/mL (≈ 0.873 µM) | 0.25 µg/mL (≈ 0.437 µM) | 0.25 µg/mL (≈ 0.437 µM) | 0.5 µg/mL (≈ 0.873 µM) | – | –
CC(=O)NC[C@H]1CN(c2cc(F)c(N3CCN(C(=O)[C@H](CC(C)C)NC(=O)c4cn5ccncc5n4)CC3)c(F)c2)C(=O)O1 [Compound 2] | 4 µg/mL (≈ 6.53 µM) | 2 µg/mL (≈ 3.26 µM) | 2 µg/mL (≈ 3.26 µM) | 1 µg/mL (≈ 1.63 µM) | 2 µg/mL (≈ 3.26 µM) | – | –
COC(=O)NC[C@H]1CN(c2ccc(N3CCN(C(=O)CNC(=O)c4cn5ccncc5n4)CC3)c(F)c2)C(=O)O1 [Compound 3] | 2 µg/mL (≈ 3.61 µM) | 0.5 µg/mL (≈ 0.902 µM) | 0.5 µg/mL (≈ 0.902 µM) | 0.25 µg/mL (≈ 0.451 µM) | 0.5 µg/mL (≈ 0.902 µM) | – | –
COC(=O)NC[C@H]1CN(c2cc(F)c(N3CCN(C(=O)[C@H](CO)NC(=O)c4cn5ccncc5n4)CC3)c(F)c2)C(=O)O1 [Compound 4] | 1 µg/mL (≈ 1.66 µM) | 0.5 µg/mL (≈ 0.83 µM) | 0.5 µg/mL (≈ 0.83 µM) | 0.5 µg/mL (≈ 0.83 µM) | 0.5 µg/mL (≈ 0.83 µM) | – | –
COC(=O)NC[C@H]1CN(c2cc(F)c(N3CCN(C(=O)[C@H](C)NC(=O)c4cn5ccncc5n4)CC3)c(F)c2)C(=O)O1 [Compound 5] | 1 µg/mL (≈ 1.7 µM) | 0.5 µg/mL (≈ 0.852 µM) | 0.5 µg/mL (≈ 0.852 µM) | 0.5 µg/mL (≈ 0.852 µM) | 0.5 µg/mL (≈ 0.852 µM) | – | –
CC(=O)NC[C@H]1CN(c2cc(F)c(N3CCN(C(=O)CNC(=O)c4cn5ccncc5n4)CC3)c(F)c2)C(=O)O1 [Compound 6] | 1 µg/mL (≈ 1.8 µM) | 0.5 µg/mL (≈ 0.898 µM) | 0.5 µg/mL (≈ 0.898 µM) | 0.5 µg/mL (≈ 0.898 µM) | 0.5 µg/mL (≈ 0.898 µM) | – | –
CC(=O)NC[C@H]1CN(c2cc(F)c(N3CCN(C(=O)C4(NC(=O)c5cn6ccncc6n5)CCCC4)CC3)c(F)c2)C(=O)O1 [Compound 7] | – | 32 µg/mL (≈ 52.4 µM) | 16 µg/mL (≈ 26.2 µM) | 8 µg/mL (≈ 13.1 µM) | 8 µg/mL (≈ 13.1 µM) | – | –
COC(=O)NC[C@H]1CN(c2ccc(N3CCCN(C(=O)CNC(=O)c4cn5ccncc5n4)CC3)c(F)c2)C(=O)O1 [Compound 25] | – | 2 µg/mL (≈ 3.52 µM) | 2 µg/mL (≈ 3.52 µM) | 1 µg/mL (≈ 1.76 µM) | 1 µg/mL (≈ 1.76 µM) | – | –
COC(=O)NC[C@H]1CN(c2cc(F)c(N3CCN(C(=O)CNC(=O)c4ccc(Cl)nc4)CC3)c(F)c2)C(=O)O1 [Compound 130] | 8 µg/mL (≈ 14.1 µM) | 0.25 µg/mL (≈ 0.441 µM) | 0.25 µg/mL (≈ 0.441 µM) | 0.125 µg/mL (≈ 0.22 µM) | 0.25 µg/mL (≈ 0.441 µM) | – | –
C[C@H](NC(=O)c1cn2cccnc2n1)C(=O)N1CCN(c2c(F)cc(N3C[C@H](CNC(=O)c4ccno4)OC3=O)cc2F)CC1 [Compound 190] | – | 0.25 µg/mL (≈ 0.401 µM) | 0.25 µg/mL (≈ 0.401 µM) | 0.5 µg/mL (≈ 0.802 µM) | 0.25 µg/mL (≈ 0.401 µM) | – | –
COC(=O)NC[C@H]1CN(c2cc(F)c(N3CCN(C(=O)[C@H](C)NC(=O)c4ccc(F)nc4)CC3)c(F)c2)C(=O)O1 [Compound 196] | – | 0.5 µg/mL (≈ 0.886 µM) | 0.5 µg/mL (≈ 0.886 µM) | 0.25 µg/mL (≈ 0.443 µM) | 0.5 µg/mL (≈ 0.886 µM) | – | –
COC(=O)NC[C@H]1CN(c2cc(F)c(N3CCN(C(=O)[C@H](C)NC(=O)c4cccnc4F)CC3)c(F)c2)C(=O)O1 [Compound 197] | – | 1 µg/mL (≈ 1.77 µM) | 0.5 µg/mL (≈ 0.886 µM) | 0.25 µg/mL (≈ 0.443 µM) | 0.5 µg/mL (≈ 0.886 µM) | – | –
CC(=O)NC[C@H]1CN(c2ccc(N3CCOCC3)c(F)c2)C(=O)O1 [Linezolid, reference compound] | 32 µg/mL (≈ 94.9 µM) | 2 µg/mL (≈ 5.93 µM) | 1 µg/mL (≈ 2.96 µM) | 2 µg/mL (≈ 5.93 µM) | 2 µg/mL (≈ 5.93 µM) | 6.0 mg/kg/p.o. | 64 µg/mL
